Converted amounts (≈) assume the structure as drawn. A value given as a limit tells only on which side of the number the result lay.

One data set addresses T1, CYP1A (Homo sapiens, UniProt P04798+P05177).
T1 sequence (P04798 whole entry): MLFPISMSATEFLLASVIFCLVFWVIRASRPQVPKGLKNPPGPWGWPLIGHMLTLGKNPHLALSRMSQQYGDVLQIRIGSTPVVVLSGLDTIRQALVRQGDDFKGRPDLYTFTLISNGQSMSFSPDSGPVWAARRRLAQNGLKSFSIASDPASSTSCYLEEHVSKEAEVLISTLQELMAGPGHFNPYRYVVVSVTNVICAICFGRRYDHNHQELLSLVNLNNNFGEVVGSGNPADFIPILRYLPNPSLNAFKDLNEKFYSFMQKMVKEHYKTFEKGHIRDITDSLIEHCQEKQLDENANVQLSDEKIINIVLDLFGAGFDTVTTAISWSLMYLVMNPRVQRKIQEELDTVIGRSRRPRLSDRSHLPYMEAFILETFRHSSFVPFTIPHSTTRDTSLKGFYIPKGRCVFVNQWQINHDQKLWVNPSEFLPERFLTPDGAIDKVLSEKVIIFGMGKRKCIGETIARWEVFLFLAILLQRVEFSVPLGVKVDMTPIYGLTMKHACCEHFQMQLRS
T1 sequence (P05177 whole entry): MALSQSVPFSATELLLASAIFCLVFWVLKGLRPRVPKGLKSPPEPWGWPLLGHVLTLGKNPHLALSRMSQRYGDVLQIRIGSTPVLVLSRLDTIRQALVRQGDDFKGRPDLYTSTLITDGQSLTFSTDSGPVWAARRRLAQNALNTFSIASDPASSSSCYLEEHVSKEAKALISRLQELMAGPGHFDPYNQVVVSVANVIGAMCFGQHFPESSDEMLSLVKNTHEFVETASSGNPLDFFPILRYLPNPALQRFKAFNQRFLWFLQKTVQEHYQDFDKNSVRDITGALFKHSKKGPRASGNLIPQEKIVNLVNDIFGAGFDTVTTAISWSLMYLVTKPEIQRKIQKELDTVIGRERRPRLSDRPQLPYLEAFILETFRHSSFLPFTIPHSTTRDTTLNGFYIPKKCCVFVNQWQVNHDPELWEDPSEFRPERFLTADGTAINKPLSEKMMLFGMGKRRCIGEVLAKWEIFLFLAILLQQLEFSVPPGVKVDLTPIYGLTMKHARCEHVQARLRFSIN
As to the kind of experiment: Inhibition of CYP1A (unknown origin). It is filed as ADME, protein assay.

Data set [1] can be described thus: Metabolic stability in mouse liver microsomes assessed as half life at 1 uM measured after 30 mins by HPLC-MS/MS analysis. It is filed as ADME, Microsome. For orientation: Microsomes from liver hold many membrane-bound enzymes, among them those of drug oxidation.
For another data set, the system named is Pseudomonas aeruginosa. As to the kind of experiment: Antivirulence activity against Pseudomonas aeruginosa PA14 assessed as inhibition of pyocyanin biosynthesis incubated for 16 hrs under agitation by photometric analysis. In kind it is functional, organism-based. The conditions noted are these: PA14, 16 h.
Data set [2] is described as follows: Plasma protein binding in human. In kind it is ADME, cell-free. The conditions noted are these: read-out: PPB.
A further data set deals with Cytochrome P450 2C9 (Homo sapiens, UniProt P11712). As to the kind of experiment: Inhibition of CYP2C9 (unknown origin). It is filed as ADME.
The target in the next data set is Cytochrome P450 2D6 (Homo sapiens, UniProt P10635). As to the kind of experiment: Inhibition of CYP2D6 (unknown origin). In kind it is ADME.
Data set [3] can be described thus: Metabolic stability in human liver S9 fraction assessed as half life. It is filed as ADME, subcellular.
Data set [4] in a line: Cytotoxicity against human HEK293 cells assessed as viable cells at 25 uM relative to control. It is filed as toxicity, cell-based. The conditions noted are these: read-out: Activity.
Data set [5] can be described thus: Cytotoxicity against human HepG2 cells assessed as viable cells. It is filed as toxicity, cell-based. The conditions noted are these: read-out: LD50 (the source's name).
Data set [6] can be described thus: Cytotoxicity against human HEK293 cells assessed as viable cells. The note with it: read-out: LD50 (the source's name). In kind it is toxicity, cell-based.
A short description of data set [7]: Plasma protein binding in mouse. In kind it is ADME, cell-free. The conditions noted are these: read-out: PPB.
Data set [8] is described as follows: Cytotoxicity against human HepG2 cells assessed as viable cells at 25 uM relative to control. It is filed as toxicity, cell-based. The conditions noted are these: read-out: Activity.
Data set [9] in a line: Kinetic aqueous solubility of the compound in PBS buffer incubated for 5 mins by turbidimetric aqueous solubility assay. In kind it is physicochemical. The conditions noted are these: read-out: Kinetic_solubility.
Data set [10] in a line: Lipophilicity, log D of the compound. In kind it is physicochemical. The conditions noted are these: octanol/water.
Data set [11] deals with Voltage-gated inwardly rectifying potassium channel KCNH2 (Homo sapiens, UniProt Q12809). As to the kind of experiment: Inhibition of hERG. It is filed as toxicity. (The hERG channel carries a current that helps repolarise heart muscle cells.)
A further data set concerns the target Cytochrome P450 3A4 (Homo sapiens, UniProt P08684). Description: Inhibition of CYP3A4 (unknown origin). In kind it is ADME.
In a further data set the target is Cytochrome P450 2C19 (Homo sapiens, UniProt P33261). As to the kind of experiment: Inhibition of CYP2C19 (unknown origin). It is filed as ADME.
Data set [12] can be described thus: Selectivity ratio of LD50 for Cytotoxicity against human HEK293 cells to IC50 for Inverse agonist activity at Pseudomonas aeruginosa PqsR. It is filed as toxicity, cell-based.
A short description of data set [13]: Cytotoxicity against human HEK293 cells assessed as viable cells at 50 uM relative to control. In kind it is toxicity, cell-based. The conditions noted are these: read-out: Activity.
The target of data set [14] is T2, Transcriptional regulator MvfR (Pseudomonas aeruginosa PA14, UniProt A0A072ZLE6).
T2 sequence (A0A072ZLE6 whole entry): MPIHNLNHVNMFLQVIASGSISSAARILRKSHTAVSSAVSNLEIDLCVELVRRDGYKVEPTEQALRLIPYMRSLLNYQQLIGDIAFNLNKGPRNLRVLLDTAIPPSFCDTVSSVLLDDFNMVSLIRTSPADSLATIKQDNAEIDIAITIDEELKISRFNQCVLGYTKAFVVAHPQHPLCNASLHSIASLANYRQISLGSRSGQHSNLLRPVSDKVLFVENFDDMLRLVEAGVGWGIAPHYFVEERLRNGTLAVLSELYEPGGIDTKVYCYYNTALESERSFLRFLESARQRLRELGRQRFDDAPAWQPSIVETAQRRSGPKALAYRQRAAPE
Description: Inverse agonist activity at Pseudomonas aeruginosa PqsR extracted from Escherichia coli Dh5alpha co-expressing lacZ incubated with test compound in presence of pseudomonas quinolone signal (PQS) by ONPG/heterologous reporter gene assay. (In general: Reporter assays use an easily measured gene product as a stand-in for the process of interest.)

Chain of Cytochrome P450 2C9 (P11712 whole entry): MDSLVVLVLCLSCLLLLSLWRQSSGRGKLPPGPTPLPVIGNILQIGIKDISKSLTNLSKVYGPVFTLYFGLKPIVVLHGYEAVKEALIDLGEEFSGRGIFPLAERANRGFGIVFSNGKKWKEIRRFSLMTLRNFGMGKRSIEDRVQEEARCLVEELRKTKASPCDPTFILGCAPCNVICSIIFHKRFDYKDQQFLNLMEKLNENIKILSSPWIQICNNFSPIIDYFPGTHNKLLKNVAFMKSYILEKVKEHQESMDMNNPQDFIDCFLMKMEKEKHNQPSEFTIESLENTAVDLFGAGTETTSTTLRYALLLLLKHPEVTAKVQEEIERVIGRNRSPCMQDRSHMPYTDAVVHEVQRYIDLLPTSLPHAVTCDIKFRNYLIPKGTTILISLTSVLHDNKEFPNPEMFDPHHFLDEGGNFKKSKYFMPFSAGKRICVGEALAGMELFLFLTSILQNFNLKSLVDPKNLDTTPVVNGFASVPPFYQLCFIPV
Chain of Voltage-gated inwardly rectifying potassium channel KCNH2 (Q12809 whole entry): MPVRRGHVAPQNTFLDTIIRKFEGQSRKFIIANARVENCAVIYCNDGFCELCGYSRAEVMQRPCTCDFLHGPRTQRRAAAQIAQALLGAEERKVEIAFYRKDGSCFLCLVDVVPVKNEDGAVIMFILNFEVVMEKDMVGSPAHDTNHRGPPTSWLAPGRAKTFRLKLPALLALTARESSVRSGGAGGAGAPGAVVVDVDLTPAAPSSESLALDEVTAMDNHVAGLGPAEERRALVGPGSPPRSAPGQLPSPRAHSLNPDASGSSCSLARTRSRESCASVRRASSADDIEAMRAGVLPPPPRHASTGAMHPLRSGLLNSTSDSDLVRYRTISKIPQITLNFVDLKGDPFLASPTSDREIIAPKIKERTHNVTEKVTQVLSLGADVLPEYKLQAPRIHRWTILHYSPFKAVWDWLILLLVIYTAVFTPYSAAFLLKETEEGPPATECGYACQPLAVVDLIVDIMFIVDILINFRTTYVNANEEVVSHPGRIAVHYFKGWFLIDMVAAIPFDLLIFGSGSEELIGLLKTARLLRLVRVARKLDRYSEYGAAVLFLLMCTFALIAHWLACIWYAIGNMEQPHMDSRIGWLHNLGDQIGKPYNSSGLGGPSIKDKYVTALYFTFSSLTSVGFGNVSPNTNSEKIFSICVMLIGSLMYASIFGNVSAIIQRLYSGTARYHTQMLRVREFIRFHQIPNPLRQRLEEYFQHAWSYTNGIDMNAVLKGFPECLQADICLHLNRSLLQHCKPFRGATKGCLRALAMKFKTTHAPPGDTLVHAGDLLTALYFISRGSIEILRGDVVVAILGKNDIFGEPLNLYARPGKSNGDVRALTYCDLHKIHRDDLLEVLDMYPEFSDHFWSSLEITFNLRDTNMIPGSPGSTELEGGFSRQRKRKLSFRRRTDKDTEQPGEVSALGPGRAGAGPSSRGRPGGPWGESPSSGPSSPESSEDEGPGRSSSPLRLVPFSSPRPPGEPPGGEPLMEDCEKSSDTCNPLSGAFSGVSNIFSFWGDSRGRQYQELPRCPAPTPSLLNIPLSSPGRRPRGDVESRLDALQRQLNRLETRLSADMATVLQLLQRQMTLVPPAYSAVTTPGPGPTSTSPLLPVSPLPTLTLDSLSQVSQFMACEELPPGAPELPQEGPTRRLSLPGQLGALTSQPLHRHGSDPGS
Chain of Cytochrome P450 2D6 (P10635 whole entry): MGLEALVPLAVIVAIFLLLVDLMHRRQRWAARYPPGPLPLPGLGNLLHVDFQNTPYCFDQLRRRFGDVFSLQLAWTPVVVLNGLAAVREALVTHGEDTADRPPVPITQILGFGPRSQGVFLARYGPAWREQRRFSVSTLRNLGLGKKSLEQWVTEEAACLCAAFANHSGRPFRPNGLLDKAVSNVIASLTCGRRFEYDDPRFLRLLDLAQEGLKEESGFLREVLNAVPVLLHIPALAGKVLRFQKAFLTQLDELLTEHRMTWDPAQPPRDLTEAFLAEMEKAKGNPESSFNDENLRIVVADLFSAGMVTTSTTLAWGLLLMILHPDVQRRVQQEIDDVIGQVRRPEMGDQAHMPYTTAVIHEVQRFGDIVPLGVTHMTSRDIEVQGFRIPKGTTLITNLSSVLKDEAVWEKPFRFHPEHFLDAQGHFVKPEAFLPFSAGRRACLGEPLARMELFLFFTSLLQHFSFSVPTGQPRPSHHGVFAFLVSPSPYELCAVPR
Chain of Cytochrome P450 3A4 (P08684 whole entry): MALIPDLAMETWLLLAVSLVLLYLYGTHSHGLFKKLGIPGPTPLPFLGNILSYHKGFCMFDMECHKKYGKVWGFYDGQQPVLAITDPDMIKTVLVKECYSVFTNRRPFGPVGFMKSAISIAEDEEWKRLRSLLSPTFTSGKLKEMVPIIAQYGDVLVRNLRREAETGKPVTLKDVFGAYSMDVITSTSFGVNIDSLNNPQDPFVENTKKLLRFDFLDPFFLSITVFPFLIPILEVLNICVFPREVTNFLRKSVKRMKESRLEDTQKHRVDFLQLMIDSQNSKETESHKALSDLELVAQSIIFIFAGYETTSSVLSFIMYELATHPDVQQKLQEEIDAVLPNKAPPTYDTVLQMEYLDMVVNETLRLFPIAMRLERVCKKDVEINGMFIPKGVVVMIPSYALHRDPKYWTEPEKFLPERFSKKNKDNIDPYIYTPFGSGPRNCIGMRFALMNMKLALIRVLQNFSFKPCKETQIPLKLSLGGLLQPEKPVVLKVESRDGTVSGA
Chain of Cytochrome P450 2C19 (P33261 whole entry): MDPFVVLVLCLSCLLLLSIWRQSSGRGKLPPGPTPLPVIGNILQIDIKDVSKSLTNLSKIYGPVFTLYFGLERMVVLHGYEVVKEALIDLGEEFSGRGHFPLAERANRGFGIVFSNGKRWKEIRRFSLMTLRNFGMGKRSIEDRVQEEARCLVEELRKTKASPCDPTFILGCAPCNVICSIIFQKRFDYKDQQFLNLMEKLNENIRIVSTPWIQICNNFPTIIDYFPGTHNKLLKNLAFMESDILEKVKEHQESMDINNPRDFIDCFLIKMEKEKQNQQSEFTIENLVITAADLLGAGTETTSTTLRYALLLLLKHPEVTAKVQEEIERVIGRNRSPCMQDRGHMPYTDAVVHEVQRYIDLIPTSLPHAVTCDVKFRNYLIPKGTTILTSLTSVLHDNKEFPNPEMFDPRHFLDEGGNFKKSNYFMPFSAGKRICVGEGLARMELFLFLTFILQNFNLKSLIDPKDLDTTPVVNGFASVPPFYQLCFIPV

In the case of `FC(F)(F)c1cc(NCc2cn(-c3ccc(Oc4ccccc4)cc3)nn2)ccn1`, the IC50 against CYP1A was more than 25 µM; in the data set on Pseudomonas aeruginosa it was 0.2 µM; against Cytochrome P450 2C9, more than 25 µM; on Cytochrome P450 2D6 it was more than 25 µM; in data set [11], more than 25 µM. In addition, in [1], the half-life at 1 µM was 10 min. For the same compound, the fraction unbound in data set [2] and in data set [7] was less than 0.01 throughout. Also, the half-life in data set [3] was more than 60 min. Moreover, the viability at 25 µM in data set [4] worked out at 48%; in [8], 55%. For the same compound, the CC50 in data set [5] and in data set [6] was approximately 25 µM each time. Further, in data set [9], the solubility kinetic at 5 min was found to be 8 µM (≈ 3.29 µg/mL). The compound further displayed a logD in [10] of 4.22.

As to `CC(C)Oc1ccc(-c2ncc(CNc3ccnc(C#N)c3)s2)cc1Cl`, the IC50 is more than 25 µM against Cytochrome P450 3A4; more than 25 µM on CYP1A; 0.098 µM with Pseudomonas aeruginosa; 21.4 µM against Cytochrome P450 2C19; more than 25 µM against Cytochrome P450 2C9; more than 25 µM on Cytochrome P450 2D6. Besides, the results for the IC50 in [11] and in data set [14] were 13.2 µM and 0.005 µM, respectively. Besides, the half-life at 1 µM in data set [1] was found to be 11 min. Besides, the fraction unbound in data set [2] and in data set [7] was less than 0.01 each time. Further, the selectivity ratio in data set [12] is 10000. Besides, in [3], the half-life is more than 60 min. Moreover, the CC50 is more than 25 µM in data set [5] and approximately 50 µM in data set [6]. Further, in [13], the viability at 50 µM amounted to 51%. In data set [8], the viability at 25 µM amounted to 59%. Also, the solubility kinetic at 5 min in data set [9] came to 7 µM (≈ 2.69 µg/mL). The same compound gave a logD in data set [10] of 4.83.

For `CC(C)Oc1ccc(-c2ncc(CNc3ccnc(C(F)(F)F)c3)s2)cc1Cl`, the IC50 is more than 25 µM on Cytochrome P450 3A4; more than 25 µM at CYP1A; 0.106 µM in the data set with Pseudomonas aeruginosa; 17.1 µM on Cytochrome P450 2C19; 16.4 µM at Cytochrome P450 2C9; more than 25 µM on Cytochrome P450 2D6. Besides, the values for the half-maximal inhibitory concentration (IC50) in data set [11] and in data set [14] were more than 25 µM and 0.008 µM, respectively. The half-life at 1 µM in [1] worked out at 20 min. Further, the fraction unbound in data set [2] and in data set [7] was less than 0.01 each time. Moreover, in data set [3], the half-life was more than 60 min. Moreover, the viability at 25 µM in data set [4] turned out to be 51%; in data set [8] it was 49%. Moreover, the CC50 in data set [5] and in data set [6] was approximately 25 µM each time. Further, the solubility kinetic at 5 min in [9] worked out at 7 µM (≈ 3 µg/mL). In addition, in data set [10], the log distribution coefficient (logD) is 4.51.

What is called IC50 is the concentration needed to halve the response being measured. As usually defined, the half-life is the time needed for the level to fall by half in the phase considered. For orientation: logD means lipophilicity at a set pH, counting ionised and neutral species. A high value points to higher lipophilicity.

The record behind these values is ChEMBL document CHEMBL5608201, “Discovery and optimization of thiazole-based quorum sensing inhibitors as potent blockers of Pseudomonas aeruginosa pathogenicity” (Eur J Med Chem, 2024).
